This note sets out measurements from EP4775577A1, “RAS INHIBITOR” (Tyligand Bioscience (Shanghai) Limited, priority 2023, dated 2025).

Test in all cases: Ba/F3 KRAS-mutant cell proliferation inhibition (CellCounting-Lite 2.0)
What all share (assay type): cell-based

For one assay, the system named is Ba/F3-KRAS-G12C-A59S. Particulars: Mus musculus, BaF3, Ba/F3-KRAS-G12C-A59S (KC-2605), 72 h. The text has this:
(§1) This experiment evaluated the proliferation inhibitory activity of the compounds of the present invention against Ba/F3-KRAS mutant cell lines by using the CellCounting-Lite®2.0 method.
(§2) The following materials, reagents, and instruments were used in this experiment: Cells were all obtained from Kangyuan Bochuang Biotechnology (Beijing) Co., Ltd. RPMI-1640 (Hyclone, SH30809.01); fetal bovine serum (FBS) was used. (GIBCO, 10099-141); Phosphate-buffered saline (PBS) (Solarbio, P1020-500); CellCounting-Lite 2.0 Luminescent Cell Viability Assay (Vazyme, DD1101-02); 96-well plate (Absin, abs7016); Multifunctional microplate reader (BMG LABTECH, CLARIOstar® Plus); CO2 incubator (Thermo Scientific, Model 3100 Series).
(§3) All cell lines were cultured in complete medium at 37°C and 5% CO2. Cells in the logarithmic growth phase were harvested and counted using a platelet counter. Cell viability was assessed using the trypan blue exclusion method to ensure a viability of over 90%. Cell density was adjusted using complete medium (RPMI 1640+10% FBS) and then seeded into 96-well cell culture plates at 90 µL per well, for a total of 3000 cells. The cells in the 96-well plates were cultured at 37°C and 5% CO2. A 10-fold drug solution was prepared using complete medium, and then 10 µL of each serially diluted compound was transferred to the corresponding wells of the 96-well cell culture plate, with two replicates for each drug concentration. The cells in the drug-treated 96-well plates were cultured at 37°C and 5% CO2 for 72 h, followed by CellCounting-Lite 2.0 analysis.
(§4) The CellCounting-Lite 2.0 Luminescent Cell Viability Assay reagent was thawed and the cell plate was equilibrated to room temperature for 30 minutes. An equal volume of CellCounting-Lite 2.0 Luminescent Cell Viability Assay solution was added to each well and the plate was shaken on an orbital shaker for 5 minutes to lyse the cells. The cell plate was placed at room temperature for 20 minutes to stabilize the cryo-luminescence signal. The cryo-luminescence values were read and the data were collected.
(§5) Data was analyzed using GraphPad Prism 7.0 software. A nonlinear S-curve regression was used to fit the data to derive the dose-response curve, and the IC50 value was calculated from this curve. [formula]

A further assay deals with Ba/F3-KRAS-G12C-H95R. Particulars: Mus musculus, BaF3, Ba/F3-KRAS-G12C-H95R (KC-2618), 72 h.
Source text: as §1, §2, §3, §4, §5

A further assay has as its system Ba/F3-KRAS-G12C-Y96S. Particulars: Mus musculus, BaF3, Ba/F3-KRAS-G12C-Y96S (KC-2619), 72 h.
Source text: as §1, §2, §3, §4, §5

A further assay has as its system Ba/F3-KRAS-G12C-Q99L. Particulars: Mus musculus, BaF3, Ba/F3-KRAS-G12C-Q99L (KC-2611), 72 h.
Source text: as §1, §2, §3, §4, §5

The test system of a further assay is Ba/F3-KRAS-G12C-A59T. The following applies: Mus musculus, BaF3, Ba/F3-KRAS-G12C-A59T (KC-2610), 72 h.
Source text: as §1, §2, §3, §4, §5

Another assay has as its system Ba/F3-KRAS-G12C-R68M. The following applies: Mus musculus, BaF3, Ba/F3-KRAS-G12C-R68M (KC-2604), 72 h.
Source text: as §1, §2, §3, §4, §5

The next assay has as its system Ba/F3-KRAS-G13D. Particulars: Mus musculus, BaF3, Ba/F3-KRAS-G13D (KC-1436), 72 h.
Source text: as §1, §2, §3, §4, §5

The subject of a further assay is Ba/F3-KRAS-G12D. Particulars: Mus musculus, BaF3, Ba/F3-KRAS-G12D (KC-1259), 72 h.
Source text: as §1, §2, §3, §4, §5

Another assay has as its system Ba/F3-KRAS-G 12V. The following applies: Mus musculus, BaF3, Ba/F3-KRAS-G 12V (KC-1261), 72 h.
Source text: as §1, §2, §3, §4, §5

A further assay has as its system Ba/F3-KRAS-G12C-H95L. The following applies: Mus musculus, BaF3, Ba/F3-KRAS-G12C-H95L (KC-3683), 72 h.
Source text: as §1, §2, §3, §4, §5

The mark [1] stands for this setting: 0.05uM, read-out: Inhibition rate% @0.05uM.
Setting [2] is: 1uM, read-out: Inhibition rate% @1uM.

For the molecule `CCN1CC/C(=C\F)[C@](C)(COc2nc(N3Cc4c(COC)c(C(=O)N(C)C)nn4CC[C@@H]3C)c3cc(Cl)c(-c4c(F)ccc5sc(N)c(C#N)c45)c(F)c3n2)C1` (single isomer, unassigned) [Example 228A], the inhibition at 0.05 µM in the assay on Ba/F3-KRAS-G12C-A59S (setting [1]) came to 83.3%; in the assay with Ba/F3-KRAS-G12C-H95R (setting [1]) it was 71.9%; in the assay with Ba/F3-KRAS-G12C-Y96S (setting [1]), 45.4%; in the assay on Ba/F3-KRAS-G12C-Q99L (setting [1]), 93.9%; with Ba/F3-KRAS-G12C-A59T (setting [1]), 79.8%; with Ba/F3-KRAS-G12C-R68M (setting [1]), 91.6%. For the same molecule, the inhibition at 0.05 µM is 88.1% with Ba/F3-KRAS-G13D (setting [1]), 99.5% in the assay with Ba/F3-KRAS-G12D (setting [1]), 99.9% in the assay on Ba/F3-KRAS-G 12V (setting [1]) and 99.7% in the assay on Ba/F3-KRAS-G12C-H95L (setting [1]). In addition, the inhibition at 1 µM is 97.4% in the assay with Ba/F3-KRAS-G12C-A59S (setting [2]); 98.6% in the assay with Ba/F3-KRAS-G12C-H95R (setting [2]); 74.9% in the assay on Ba/F3-KRAS-G12C-Y96S (setting [2]); 98.1% in the assay with Ba/F3-KRAS-G12C-Q99L (setting [2]); 95.1% in the assay with Ba/F3-KRAS-G12C-A59T (setting [2]); 96.6% with Ba/F3-KRAS-G12C-R68M (setting [2]). Also, the inhibition at 1 µM with Ba/F3-KRAS-G13D (setting [2]) was determined as 98.2%; with Ba/F3-KRAS-G12D (setting [2]), 99.8%; with Ba/F3-KRAS-G 12V (setting [2]), 100%; with Ba/F3-KRAS-G12C-H95L (setting [2]) it was 100%.
